Test results published in patent US20080009448A1, “Peptide Derivative” (priority 2006, published 2008).
Like-named read-outs stand apart in the source and are kept apart here.

Key:
[1] = system: heat nociceptive stimulation; test: Anti-nociceptive activity test, tail-flick method; assay type: in vivo, mouse; conditions: for ED50: Mus musculus; for ED50 / activity-peak time after the oral administration / activity-peak time after the subcutaneous administration / Oral ED50 / Subcutaneous ED50: mice; for ED50 / Oral ED50 / Subcutaneous ED50: at activity-peak time, parentheses = 95% confidence limit
Procedure: (1) Experimental animal, male ddy mice (Japan SLC), weighing the body weight in the range of 22 to 25 g, were used for the studies. The animals had been kept under constant conditions (room temperature 22±2° C., humidity 55±5%, 12 hours light-and-dark cycle having light time 9:00 to 21:00 and dark time 21:00 to 9:00) until used for an experiment. The animals were fed the mouse solid diet (F2, Funabashi farm. Funabashi, Japan) with unrestricted tap water intake.
SS8225-01, 02, 03 04, 05, 06, 07 and 08 as examples and SS8225-09, 10, 11 and 12 as comparison examples were used as the administered drugs. […] In addition only Liger solution was administered as an experimental control. The animals were left for 60 minutes in the plastic cage to become familiar to the environment prior to the test in which measured a latent time for each mouse before drug administration in accordance with a tail-flick method noted below. Heat was radiated to a part of each mouse tail which is 2 cm from the end of its tail. Each of heat radiation periods before beginning of tail-flick was measured as a false pain threshold. Mice which responded to the stimulation within 2.5 to 3.5 seconds were pre-selected for the test. Administration solution under one administration condition for one kind of drug was administered to one experimental animal group including 10 mice. After the body weight of each mouse was measured, each volume of the administration solution was adjusted to be 0.1 mL/10 g of mouse body weight and then the solution was administered. The administration methods were two methods of subcutaneous administration (s. c.) and oral administration (p. o.). On subcutaneous administration, the administration solution of 0.1 mL per 10 g of body weight (0.1 mL/10 g) was injected into the back of the mouse using 27 gauge needle. On oral administration, the administration solution of 0.1 mL per 10 g of body weight (0.1 mL/10 g) was administered using an oral sonde.
Heat was radiated to a part of each mouse's tail of respective experimental group, which is 2 cm from the end of its tail, at 15, 30 and 60 minutes after the drug administration according to the preset measurement interval and a latent time until respective mouse swung its tail was measured as a false pain threshold value. The maximum stimulation period (cut-off-time) was set as 10 seconds to minimize the damage to the stimulation part. The anti-nociceptive effect was evaluated quantitatively by calculating % MPE (% of maximum possible effect) according to the following formula. [formula] T1: A latent time until beginning of tail-flick before respective drug administration (seconds) T2: A latent time until beginning of tail-flick after respective drug administration (seconds) Tc: A maximum stimulation period (cut-off-time)
The graphs (FIG. 1, FIG. 3, FIG. 5, FIG. 7, FIG. 9, FIG. 11, FIG. 13, FIG. 15, FIG. 17, FIG. 19, FIG. 21, FIG. 23, FIG. 25, FIG. 27, FIG. 29, FIG. 31, FIG. 33 and FIG. 35) showing a time-course variation of % MPE were created, in which a vertical axis is an average value with a standard error (means ±S. E. M.) obtained by calculation of % MPE of respective animals of 10 mice every administration condition of respective drugs and a horizontal axis is a time after administration. After treating % MPE data of each animal of experimental groups with respective doses and % MPE data of each animal of the experimental group with a control Ringer's solution at the same measurement time every drugs using the two-way layout dispersion analysis (two-way ANOVA), the hazard-ratio of P<0.05 was decided to be a significant difference according to Bonferroni post-test.
A lasting time of anti-nociceptive activity of each drug in the present description is the lasting time of anti-nociceptive activity under the dose condition providing the longest lasting time.
ED50 is represented in the unit of mg/Kg.

[2] = system: MSU induced knee osteoarthritis pain; test: MSU induced knee osteoarthritis pain model, hind leg paw-pressure ratio; assay type: in vivo, rat; parameters: key to AUC of time-course variation of anti-nociceptive activity: AUC of the time course of anti-nociceptive activity as % MPE; conditions: rat, MSU knee model; for ED50: range in parentheses
Procedure: Experimental animal, male SD type rats, weighing the body weight in the range of 170 to 190 g, were used for the studies. The animals had been kept under constant conditions (room temperature 23±1° C., humidity 52±2%, 12 hours light-and-dark cycle having light time 7:00 to 19:00 and dark time 19:00 to 7:00) until used for an experiment. The animals were fed the mouse solid diet (F2, Funabashi farm. Funabashi, Japan) with unrestricted tap water intake, and kept in captivity for at least more than two days in a laboratory.
Any test drugs were dissolved in Ringer's solution (Fuso Yakuhin) to be used.
MSU was suspended with the suspension solution (10% of polyoxyethylene sorbitan mono-oleate (Tween 80: Nakarai Tesk) as 0.1 g per 1 mL. The animal was anesthetized with diethyl ether and after the surface of its left hind leg knee joint was wiped with 70% ethanol cotton, a porous administration of the suspension solution above noted was conducted into the cavity of let hind leg knee joint.
Pressures to both hind leg paw were measured using a paw-pressure measurement apparatus and recorded. Measurement time at respective times was 4.5 seconds. Calculated paw-pressure ratio (ppr) is a value calculated by dividing the pressure on the left hind leg by the pressure on the right hind leg according to the measured pressures on both hind legs.
The anti-nociceptive effect was evaluated quantitatively by calculating % MPE (% of maximum possible effect) according to the following formula. [formula]
In the formula, ppr 0 and ppr 1 are respective paw-pressure ratios on both hind legs before and after administration. ED50 value of anti-nociceptive activity was calculated using GraphPad Prism data-graph processing software version 4.0, San Diego, Calif., USA.
The strength of anti-nociceptive activity was represented by calculating the time-course variation of anti-nociceptive activity AUC using GraphPad Prism noted above.
Paw-pressure was measured twice at 4 hours after administration to provide ppr by calculation and the average of those values was both hind leg paw-pressure ratio before the drug administration. After the measurement of both hind leg paw-pressure before the drug administration, 0.1 mL of Ringer's solution or a test drug in Ringer's solution per 100 g rat body weight was orally administered, and then a paw-pressure was measured once every unit time after the oral administration.
Statistical processing was conducted using GraphPad Prism. After the two-way layout dispersion analysis, the hazard-ratio of P<0.05 was decided to be a significant difference according to Bonferroni post-test. The hazard-ratios were distinguished into less than 5% (P<0.05) and less than 1% (P<0.01) and represented as “*” and “**” in the same manner conducted for the Tail-flick method.

[3] = s.c., doses of 0.5 mg/Kg and 0.25 mg/Kg

Compound: COc1ccc2c3c1O[C@H]1C(=O)CC[C@@]4(O)[C@@H](C2)N(C)CC[C@]314 [Oxycodone]
- ED50 ([1]; po, p.o., read-out: Oral ED50): 7.82 mg/kg
- ED50 ([1]; sc, s.c., read-out: Subcutaneous ED50): 1.21 mg/kg
- activity-peak time after the oral administration ([1]; p.o.): 45 min
- activity-peak time after the subcutaneous administration ([1]; s.c.): 30 min
- lasting time of anti-nociceptive activity ([1]; p.o., dose of 20 mg/Kg): 5 h
- lasting time of anti-nociceptive activity ([1]; s.c., dose of 1.75 mg/Kg): 1.5 h
- activity lasting-time, times longer than for morphine ([2]; oral): 0.4 times
- activity peak ([2]; oral): 60 min
- AUC of time-course variation of anti-nociceptive activity ([2]; oral 7.5 mg/kg): 2525
- AUC of time-course variation of anti-nociceptive activity ([2]; oral 15 mg/kg): 6363
- AUC of time-course variation of anti-nociceptive activity ([2]; oral 30 mg/kg): 10562
- ED50 ([2]; oral, %MPE, read-out: ED50 value at activity peak): 10.3 mg/kg
- anti-nociceptive activities, times stronger than for morphine ([2]; oral, from ED50 of AUCs): approximately 1.8 times
- ED50 ([2]; oral, read-out: ED50 of AUCs): 49.4 mg/kg
- anti-nociceptive activity lasting-times, times longer than for morphine ([2]; oral, stated after ED50 at activity peak): 3.6 times
- activity lasting-time ([2]; orally administered): 120 min

Compound: Iminoethyl-[DMT]-[D-Arg]-[Phe]-[N-MeLys]-OH [SS8225-12]
- Oral ED50 ([1]; p.o.): >10 mg/kg
- Oral ED50 ([1]; p.o., listed as Comparison Example 6): over 10 mg/Kg
- Subcutaneous ED50 ([1]; s.c.): >0.5 mg/kg
- Subcutaneous ED50 ([1]; s.c., listed as Comparison Example 6): over 0.5 mg/Kg

Compound: Iminoethyl-[DMT]-[D-Arg]-[Phe]-[N-MeβAla]-NH2 [SS8225-01]
- Oral ED50 ([1]; p.o.): >10 mg/kg
- activity-peak time after the subcutaneous administration ([1]; s.c.): 90 min
- Subcutaneous ED50 ([1]; s.c.): 0.12 mg/kg
- lasting time of anti-nociceptive activity [1, 3]: not less than 7 hours

Compound: Iminoethyl-[DMT]-[D-Met(O)]-[Phe]-[N-MeLys]-NH2 [SS8225-05]
- Oral ED50 ([1]; p.o.): >10 mg/kg
- activity-peak time after the subcutaneous administration ([1]; s.c.): 120 min
- Subcutaneous ED50 ([1]; s.c.): 0.10 mg/kg
- lasting time of anti-nociceptive activity ([1]; s.c., dose of 0.25 mg/Kg): 7 h

Compound: Iminoethyl-[DMT]-[D-Met(O)]-[Phe]-[N-MeβAla]-NH2 [SS8225-03]
- Oral ED50 ([1]; p.o.): >10 mg/kg
- activity-peak time after the subcutaneous administration ([1]; s.c.): 90 min
- Subcutaneous ED50 ([1]; s.c.): 0.08 mg/kg
- lasting time of anti-nociceptive activity [1, 3]: 7 h

Compound: Iminoethyl-[Tyr]-[D-Arg]-[Phe]-[N-MeβAla]-NH2 [SS8225-02]
- activity-peak time after the oral administration ([1]; p.o.): 240 min
- Oral ED50 ([1]; p.o.): 4.0 mg/kg
- activity-peak time after the subcutaneous administration ([1]; s.c.): 90 min
- Subcutaneous ED50 ([1]; s.c.): 0.06 mg/kg
- lasting time of anti-nociceptive activity ([1]; p.o., dose of 10 mg/Kg): 10 h
- lasting time of anti-nociceptive activity ([1]; s.c., dose of 0.125 mg/Kg): 6 h

Compound: Iminoethyl-[Tyr]-[D-Met(O)]-[Phe]-[N-MeLys]-NH2 [SS8225-06]
- activity-peak time after the oral administration ([1]; p.o.): 120 min
- Oral ED50 ([1]; p.o.): 6.02 mg/kg
- activity-peak time after the subcutaneous administration ([1]; s.c.): 90 min
- Subcutaneous ED50 ([1]; s.c.): 0.18 mg/kg
- lasting time of anti-nociceptive activity ([1]; p.o., dose of 10 mg/Kg): not less than 17 hours
- lasting time of anti-nociceptive activity ([1]; s.c., dose of 0.25 mg/Kg): 5 h

Compound: Iminoethyl-[Tyr]-[D-Met(O)]-[Phe]-[N-MeLys]-NHCH3 [SS8225-08]
- Oral ED50 ([1]; p.o.): >10 mg/kg
- activity-peak time after the subcutaneous administration ([1]; s.c.): 90 min
- Subcutaneous ED50 ([1]; s.c.): 0.1 mg/kg
- lasting time of anti-nociceptive activity ([1]; s.c., dose of 0.25 mg/Kg): 5 h

Compound: Iminoethyl-[Tyr]-[D-Met(O)]-[Phe]-[N-MeLys]-OH [SS8225-11]
- Oral ED50 ([1]; p.o.): >10 mg/kg
- Oral ED50 ([1]; p.o., listed as Comparison Example 5): over 10 mg/Kg
- Subcutaneous ED50 ([1]; s.c.): >0.5 mg/kg
- Subcutaneous ED50 ([1]; s.c., listed as Comparison Example 5): over 0.5 mg/Kg

Compound: [DMT]-[D-Arg]-[Phe]-[N-MeLys]-NH2 [SS8225-09]
- Oral ED50 ([1]; p.o.): >10 mg/kg
- Oral ED50 ([1]; p.o., listed as Comparison Example 3): over 10 mg/Kg
- activity-peak time after the subcutaneous administration ([1]; s.c.): 90 min
- Subcutaneous ED50 ([1]; s.c.): 0.44 mg/kg
- lasting time of anti-nociceptive activity ([1]; s.c., dose of 1 mg/Kg): 5 h

Compound: [DMT]-[D-Met(O)]-[Phe]-[N-MeLys]-NH2 [SS8225-10]
- Oral ED50 ([1]; p.o.): >10 mg/kg
- Oral ED50 ([1]; p.o., listed as Comparison Example 4): over 10 mg/Kg
- activity-peak time after the subcutaneous administration ([1]; s.c.): 90 min
- Subcutaneous ED50 ([1]; s.c.): 0.28 mg/kg
- lasting time of anti-nociceptive activity ([1]; s.c., dose of 0.5 mg/Kg): 6 h
